Measurements: US20100069345A1, “Lanthanide-porphyrin complexes as anti-tumor agents” (priority 2005, published 2010)

How the values were obtained:
[1] = tested on: human coloadenocarcinoma cells (HCT-8); test: MTT cell viability assay, HCT-8; type: cell-based
Text: Human cervical epitheloid carcinoma cells (HeLa), human hepatocellular carcinoma cells (HepG2 and Hep3B), human breast cancer cells (MCF-7), human coloadenocarcinoma cells (HCT-8), and normal human lung fibroblast cells (CCD-19Lu) were purchased from American Type Culture Collection (ATCC) Rockville, Md., USA. The human hepatocellular cancinoma cells QGY-7703, and the multi-drug resistant cell line QGY-TR50 derived from QGY-7703, were generously provided by Prof. Yong Xie (The Hong Kong University of Science and Technology, Hong Kong PRC). QGY-TR50 cells were isolated and cultured as described (J. Zhou, S. C. Cheng, D. Luo, Y. Xie Biochem. Biophys. Res. Commun. 2001, 280, 1237-1242). Human nasopharyngeal carcinoma cells (SUNE1 and its cisplatin-resistant variant—CNE2) were derived from poorly differentiated NPC in Chinese patients and were generously provided by Dr. S. W. Tsao (The University of Hong Kong, Hong Kong PRC). Cell culture flasks and 96-well microtitre plates were from Nalge Nunc Int. Culture medium, other medium constituents and phosphate buffer saline (PBS) were obtained by Gibco BRL Rockville, Md., USA. Cell Proliferation kit I (MTT) was purchased from Roche. Mannheim, Germany.

HeLa cells = test: FACS cell cycle analysis with PI staining; type: cell-based, human; settings: 2 μM
Procedure: Instrumentation. All absorption spectra were recorded on a Perkin-Elmer Lambda 900 and Perkin-Elmer Fusion α-FP. Positive ion FAB mass spectra were recorded on a Finnigan MAT95 mass spectrometer. ^1HNMR spectra were recorded on Brucker DPX-300 or DPX-400 NMR spectrometers. Flow cytometric analysis was performed with a Coulter EPICS flow cytometer (Coulter, Miami, Fla.) equipped with 480 long, 525 band and 625 long pass mirrors. Samples were excited by 15 mW air-cool argon convergent laser at 488 nm. Fluorescence signal were manipulated with Coulter Elite 4.0 software (Coulter) and were analyzed by Winlist 1.04 and Modfit 5011 software (verity Software House, Topsham, Me.).
Fluorescence-Activated Cell Sortings (FACS). Cells in different phases of the cell cycle can be differentiated by the DNA content, which can be distinguished by FACS after staining the cells with propidium iodide (PI). Resting cells are said to be in the G0 phase of the cell cycle. Once the cell is instructed to divide, it enters the active phase of the cell cycle, which is consisted of G1, S, G2 and M phase. Treatment of cancer cells with cytotoxic agents may induce cell cycle arrest at a particular phase of the cell cycle. Flow cytometry with PI staining was performed in HeLa cells treated with complex 1 (2 μM) for 0, 6 h, 12 h, 18 h, 24 h, 36 h and 48 h. […]

Bid = test: Western blotting analysis, Bid; type: cell-based, human; settings: HeLa, 2 μM, 32 h
Procedure: Cells were washed in cold phosphate-buffered saline (PBS) at 4° C. and lysed in a buffer containing 0.05 M Tis.HCl (pH 7.5), 0.25 M NaCl, 0.005 M EDTA, 0.05 M NaF, 1 mM DTT and 1% Triton. Cell lysates were collected and the protein concentration of cell lysates was measured using a Protein detection kit (Bio-Rad). Equal amount of proteins was resolved in a 12% SDS-PAGE gel and transferred onto nitrocellulose membranes. The membrane was blocked with a blocking solution (1×TBS, 0.1% Tween-20 with 5% non-fat dry milk) at room temperature for 1 h, and washed three times with washing buffer (1×TBS, 0.1% Tween-20) for 5 min each. The membrane was then incubated with primary antibody (Caspase 3, Bid, PARP and β-Actin respectively) for overnight at 4° C. The membrane was washed three times with washing buffer for 5 min each before incubation with the corresponding secondary antibody (horse anti-mouse IgG or goat anti-rabbit IgG). Membrane was washed again and signals were detected using an ECL detection kit (Amersham Pharmacia Biotech) followed by the exposure to X-ray films (Fujifilm).
After treatment with complex 1 for different time intervals, the expressions of caspase 3, Bid and PARP were detected by the Western blotting analysis. […] Moreover, treatment with complex 1 leads to a reduction in the level of un-cleaved Bid.

- IC50 ratio cisplatin/complex, HCT-8 ([1]; IC50 of cisplatin divided by IC50 of complex): 11.6
- IC50 ([1]; MTT, 37° C., 48 h, mean ± SD): 2270 ± 600 nM
Substance: [Yb2(OEP)2](μ-OH)2 [Complex 1]
- change in proportion of cells in G0-G1, G2-M and S phase (HeLa cells; 0-48 h, PI staining): no observable change
- cells showing DNA fragmentation (HeLa cells; 48 h): more than 60%
- expression of Bid (Bid): decrease dramatically
